Here are results for two compounds from patent US20260216336A1, “NEW PSORALEN COMPOUND” (NAGASAKI UNIVERSITY, priority 2022, published 2026).

The subject of test [1] is DNA. The conditions noted are these: background statement on commercially available reagent; cited from earlier work.
Test [2] has as its system DNA. The experiment in a line: DNA crosslinking efficiency of psoralen reagents (general statements, no method given). The conditions noted are these: studies conducted by the inventors. The class given is biochemical.

Molecules are shown by their SMILES. Like-named read-outs stand apart in the source and are kept apart here.

As to `Cc1oc2c(C)c3oc(=O)cc(C)c3cc2c1COCCCCCCOP(OCCC#N)N(C(C)C)C(C)C` (centres unmarked) [Psoralen C6 Phosphoramidite, 6-[4′-(Hydroxymethyl)-4,5′,8-trimethylpsoralen]-hexyl-1-O-(2-cyanoethyl)-(N,N-diisopropyl)-phosphoramidite], the DNA crosslinking efficiency result in the test with DNA [1] is given as “favorable DNA crosslinking efficiency”.
Regarding `O=C(CCCOc1c2occc2cc2ccc(=O)oc12)ON1C(=O)CCC1=O` [SPB, succinimidyl-[4-(psoralen-8-yloxy)]butyrate], the DNA crosslinking efficiency entry with DNA [2] is listed as “very low”.
